According to patent US8334302B2, “Synthesis and anti-proliferative effect of substituted imidazo[4,5-b]pyridine compounds” (Spelman College, priority 2008, dated 2012):

Tests used:
[1] = system: PC-3 human prostate cancer cells; experiment: Inhibition of cell proliferation in PC-3 cells, DNA assay (Hoechst 33258); type: cell-based; conditions: for IC50: Homo sapiens, inhibition of PC-3 cells, read-out: PC3 IC50
Description: Cell Culture and Drug Treatment. PC-3 human prostate cancer cells were seeded in duplicate 96 well tissue culture plates at 500 cells/well in 80-μL Dulbecco's […] (DMEM) supplemented with 5% fetal bovine serum (FBS) and nonessential amino acids and 1% equimolar mixture of streptomycin-penicllin. The flasks were incubated in a humidified 95% air/5% CO2 atmosphere. The cells were grown for at least 24 hours to ensure that they were in the early log phase of growth. Cells were then treated with 20-μL drug solutions (stock 10 mM drug solution in DMSO was diluted in DMEM containing 5% FBS such that final DMSO concentration is less than 1%) of appropriate final concentration by serial dilution. Untreated control cells received 20-μL DMEM containing 5% FBS. Six wells of each plate received the same drug concentration. Thus, each data point and error bars are an average and standard deviation of readings from 12 wells treated with identical drug concentration.
DNA Assay. After appropriate time of incubation, DNA assay was performed. For DNA assay, each culture plate was washed with 25% PBS and incubated in deionized double distilled water for at least one hour at room temperature. Plates were frozen at −70° C. and thawed/equilibrated to room temperature. Hoechst 33258 DNA binding dye was then added to each well in 200-μL of high salt TNE buffer (10 mM Tris, 1 mM EDTA, 2 M NaCl [pH 7.4]) at a final concentration of 6.7-μg/mL. After further incubation at room temperature for 2 hours under protection from light, culture plates were scanned on the CytoFluor 2350™ scanner using the 360/460 nm filter excitation and emission set. Readings from all plates were normalized to the fluorescence of control untreated cells and all data were expressed as the percent control.

CDK1/cyclinB(h) = target: T1, CDK1/cyclinB(h) (Homo sapiens, UniProt P06493); experiment: Kinase assay, Millipore KinaseProfiler, radiometric; type: biochemical; conditions: CDK1/cyclinB(h) activity in presence of compound
T1 construct: purchased Millipore (KinaseProfiler Service)
Description: (§1) Kinase Assays. Kinase assays were conducted by Millipore's KinaseProfiler Service to determine the amount of ATP phosphorylation that occurs in the presence of a benzimidazole molecule. Kinases assayed included IKKβ, CK2, CDK1/cyclinB, GSK3β, and p70S6K. The desired kinase was treated with the benzimidazole compound The reaction were initiated by the addition of the MgATP mix. After incubation for 40 minutes at room temperature, the reaction is stopped by the addition of 3% phosphoric acid solution. 10 μL of the reaction was then spotted onto a P30 filtermat and washed three times for 5 minutes in 75 mM phosphoric acid and once in methanol prior to drying and scintillation counting. The kinase activity was measured radiometrically to determine the amount of ATP phosphorylation produced. All assays were done in triplicate.

IKKβ(h) = target: T2, IKKβ(h) (Homo sapiens, UniProt O14920); experiment: as above; type: biochemical; conditions: IKKβ(h) activity in presence of compound
T2 construct: purchased Millipore (KinaseProfiler Service)
T2 sequence (O14920 1-756): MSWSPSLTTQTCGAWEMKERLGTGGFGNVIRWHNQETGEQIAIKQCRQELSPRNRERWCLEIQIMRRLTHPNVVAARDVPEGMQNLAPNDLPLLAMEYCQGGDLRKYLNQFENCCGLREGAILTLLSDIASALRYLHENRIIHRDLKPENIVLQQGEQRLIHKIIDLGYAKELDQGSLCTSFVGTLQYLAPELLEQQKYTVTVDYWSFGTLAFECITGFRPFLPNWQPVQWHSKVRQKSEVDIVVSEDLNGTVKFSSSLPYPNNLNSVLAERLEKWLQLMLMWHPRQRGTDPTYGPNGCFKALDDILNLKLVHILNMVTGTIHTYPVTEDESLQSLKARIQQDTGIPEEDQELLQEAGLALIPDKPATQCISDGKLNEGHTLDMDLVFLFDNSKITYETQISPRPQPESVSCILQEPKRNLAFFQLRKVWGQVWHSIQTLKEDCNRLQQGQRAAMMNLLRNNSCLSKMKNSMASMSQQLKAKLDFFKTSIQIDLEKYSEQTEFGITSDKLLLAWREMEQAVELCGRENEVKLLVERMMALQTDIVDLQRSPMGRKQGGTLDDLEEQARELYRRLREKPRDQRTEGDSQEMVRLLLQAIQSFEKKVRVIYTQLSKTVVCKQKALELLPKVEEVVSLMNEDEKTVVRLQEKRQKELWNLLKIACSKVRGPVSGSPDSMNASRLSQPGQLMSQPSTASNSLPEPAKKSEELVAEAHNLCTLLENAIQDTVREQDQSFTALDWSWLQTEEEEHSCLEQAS
Description: as §1

p70S6K(h) = target: T3, p70S6K(h) (Homo sapiens, UniProt P23443); experiment: as above; type: biochemical; conditions: p70S6K(h) activity in presence of compound
T3 construct: purchased Millipore (KinaseProfiler Service)
Description: as §1

CK2(h) = target: T4, CK2(h) (Homo sapiens, UniProt P68400); experiment: as above; type: biochemical; conditions: CK2(h) activity in presence of compound
T4 construct: purchased Millipore (KinaseProfiler Service)
Description: as §1

GSK3β(h) = target: T5, GSK3β(h) (Homo sapiens, UniProt P49841); experiment: as above; type: biochemical; conditions: GSK3β(h) activity in presence of compound
T5 construct: purchased Millipore (KinaseProfiler Service)
Description: as §1

PC-3 cells = conditions: micromolar concentrations; cited from earlier work
PDK1(h) = target: T6, PDK1(h) (Homo sapiens, UniProt O15530); experiment: Kinase assay, Millipore KinaseProfiler, radiometric; type: biochemical; conditions: PDK1(h) activity in presence of compound
T6 construct: purchased Millipore (KinaseProfiler Service)
T6 sequence (O15530 1-556): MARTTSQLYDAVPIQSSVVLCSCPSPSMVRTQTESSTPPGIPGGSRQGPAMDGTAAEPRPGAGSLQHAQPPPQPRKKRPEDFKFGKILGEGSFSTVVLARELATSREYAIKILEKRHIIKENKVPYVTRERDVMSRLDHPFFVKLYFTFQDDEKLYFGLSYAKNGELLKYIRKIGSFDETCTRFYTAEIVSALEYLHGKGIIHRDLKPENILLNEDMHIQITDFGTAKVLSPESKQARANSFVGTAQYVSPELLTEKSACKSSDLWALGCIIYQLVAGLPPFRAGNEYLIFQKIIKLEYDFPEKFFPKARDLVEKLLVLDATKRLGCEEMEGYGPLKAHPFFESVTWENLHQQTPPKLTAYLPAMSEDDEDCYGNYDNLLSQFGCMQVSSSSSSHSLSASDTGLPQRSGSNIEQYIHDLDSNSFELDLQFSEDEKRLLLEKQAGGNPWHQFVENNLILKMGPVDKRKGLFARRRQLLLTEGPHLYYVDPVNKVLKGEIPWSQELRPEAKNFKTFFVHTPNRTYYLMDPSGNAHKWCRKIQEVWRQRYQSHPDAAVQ

T1 sequence (P06493 whole entry): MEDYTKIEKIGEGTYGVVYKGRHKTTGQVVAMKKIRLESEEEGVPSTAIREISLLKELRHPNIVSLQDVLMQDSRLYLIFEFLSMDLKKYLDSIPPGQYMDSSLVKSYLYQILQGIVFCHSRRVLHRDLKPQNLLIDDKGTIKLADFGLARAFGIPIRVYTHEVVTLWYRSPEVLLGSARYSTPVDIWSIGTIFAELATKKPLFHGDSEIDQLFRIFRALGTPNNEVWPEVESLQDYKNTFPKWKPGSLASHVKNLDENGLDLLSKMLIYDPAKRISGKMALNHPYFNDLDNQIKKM
T1 sequence (P14635 whole entry partner): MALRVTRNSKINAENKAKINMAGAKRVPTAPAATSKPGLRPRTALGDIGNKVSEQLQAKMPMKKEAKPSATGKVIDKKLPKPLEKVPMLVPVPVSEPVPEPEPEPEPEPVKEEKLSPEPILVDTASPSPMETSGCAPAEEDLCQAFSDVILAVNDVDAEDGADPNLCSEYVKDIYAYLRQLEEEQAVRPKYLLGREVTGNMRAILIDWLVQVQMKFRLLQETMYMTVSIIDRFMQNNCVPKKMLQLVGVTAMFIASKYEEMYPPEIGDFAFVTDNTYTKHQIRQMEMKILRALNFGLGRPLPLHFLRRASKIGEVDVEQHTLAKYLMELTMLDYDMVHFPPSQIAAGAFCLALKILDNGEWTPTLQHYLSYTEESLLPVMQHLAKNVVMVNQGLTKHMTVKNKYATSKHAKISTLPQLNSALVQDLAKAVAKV
T5 sequence (P49841 whole entry): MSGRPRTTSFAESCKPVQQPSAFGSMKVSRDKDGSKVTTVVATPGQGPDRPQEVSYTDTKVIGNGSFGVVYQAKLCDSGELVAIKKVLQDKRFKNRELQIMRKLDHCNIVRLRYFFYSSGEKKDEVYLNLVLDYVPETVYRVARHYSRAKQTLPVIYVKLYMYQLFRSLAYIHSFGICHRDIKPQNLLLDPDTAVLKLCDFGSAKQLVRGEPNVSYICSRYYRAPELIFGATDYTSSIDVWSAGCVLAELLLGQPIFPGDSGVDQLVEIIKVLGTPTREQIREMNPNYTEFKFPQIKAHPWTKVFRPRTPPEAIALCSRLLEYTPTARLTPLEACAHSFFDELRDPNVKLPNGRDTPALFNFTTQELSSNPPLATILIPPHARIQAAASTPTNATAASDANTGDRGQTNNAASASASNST
T4 sequence (P68400 whole entry): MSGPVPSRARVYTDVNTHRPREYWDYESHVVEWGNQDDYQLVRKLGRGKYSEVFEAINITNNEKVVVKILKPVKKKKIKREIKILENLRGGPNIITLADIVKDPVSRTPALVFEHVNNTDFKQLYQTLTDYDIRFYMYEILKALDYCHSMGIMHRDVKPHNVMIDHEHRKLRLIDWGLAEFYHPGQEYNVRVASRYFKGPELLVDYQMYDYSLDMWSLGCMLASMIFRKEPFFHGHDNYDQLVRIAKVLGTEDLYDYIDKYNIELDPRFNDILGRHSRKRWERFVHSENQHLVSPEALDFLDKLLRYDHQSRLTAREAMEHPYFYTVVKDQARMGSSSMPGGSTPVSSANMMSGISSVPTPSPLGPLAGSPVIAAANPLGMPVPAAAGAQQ
T4 sequence (P67870 whole entry partner): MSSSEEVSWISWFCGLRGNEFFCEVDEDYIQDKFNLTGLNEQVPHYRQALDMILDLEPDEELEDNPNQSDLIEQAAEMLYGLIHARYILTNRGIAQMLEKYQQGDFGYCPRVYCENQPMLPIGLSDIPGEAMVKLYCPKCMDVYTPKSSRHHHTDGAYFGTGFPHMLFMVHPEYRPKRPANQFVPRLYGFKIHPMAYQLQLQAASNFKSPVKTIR
T3 sequence (P23443 whole entry): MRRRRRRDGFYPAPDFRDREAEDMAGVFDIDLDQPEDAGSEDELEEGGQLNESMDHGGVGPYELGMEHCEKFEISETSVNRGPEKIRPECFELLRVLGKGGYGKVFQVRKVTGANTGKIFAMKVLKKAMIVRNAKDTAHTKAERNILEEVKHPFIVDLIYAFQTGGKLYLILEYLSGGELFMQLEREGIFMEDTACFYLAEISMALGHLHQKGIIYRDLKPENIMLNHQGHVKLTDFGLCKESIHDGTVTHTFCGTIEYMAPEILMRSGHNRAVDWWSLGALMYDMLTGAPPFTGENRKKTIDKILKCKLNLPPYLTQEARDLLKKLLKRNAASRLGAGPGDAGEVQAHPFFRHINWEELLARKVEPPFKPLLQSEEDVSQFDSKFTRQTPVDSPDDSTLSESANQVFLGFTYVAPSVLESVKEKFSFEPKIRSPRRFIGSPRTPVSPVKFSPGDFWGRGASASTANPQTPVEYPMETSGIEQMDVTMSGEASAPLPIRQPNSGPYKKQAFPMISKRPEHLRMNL

SMILES | IC50 [1] [µM] | % Activity (CDK1/cyclinB(h)) [%] | % Activity (IKKβ(h)) [%] | % Activity (p70S6K(h)) [%] | % Activity (CK2(h)) [%] | % Activity (GSK3β(h)) [%] | further results
CC(C)(C)c1ccc(-c2cc(C(F)(F)F)nn2-c2ccc(S(N)(=O)=O)cc2)cc1 [Compound 204] | 18 |  |  |  |  |  | 
Cc1ccc(-n2c(-c3ccc(S(N)(=O)=O)cc3)nc3ccccc32)cc1 [Compound 206, 4-[1-(4-methylphenyl)-1H-benzo[d]imidazol-2-yl]benzenesulfonamide] | 24 | 7 | 86 | 33 | 92 | 72 | antiproliferative effect in PC-3 cells (in words) ([1]; PC-3 human prostate cancer cells, DNA assay, FIG. 1): slightly more effective
Cc1ccc(-c2cc(C(F)(F)F)nn2-c2ccc(S(N)(=O)=O)cc2)cc1 [Compound 201, Celecoxib] | 30 |  |  |  |  |  | 
CC(C)(C)c1ccc(-n2c(-c3ccc(S(N)(=O)=O)cc3)nc3ccccc32)cc1 [Compound 207, 4-(1-(4-tert-butylphenyl)-1H-benzo[d]imidazol-2-yl)benzenesulfonamide] | 20 |  |  |  |  |  | 
N=C(N)Nc1ccc(-n2nc(C(F)(F)F)cc2-c2ccc3c(ccc4ccccc43)c2)cc1 [Compound 202, OSU-03013] | 3 |  |  |  |  |  | concentration diminishing cell proliferation, relative to celecoxib (PC-3 cells): thirty-fold lower
NS(=O)(=O)c1ccc(-n2nc(C(F)(F)F)cc2-c2ccc3ccccc3c2)cc1 [Compound 205] | 10 |  |  |  |  |  | 
FC(F)(F)c1cc(-c2ccc3c(ccc4ccccc43)c2)n(-c2ccc(-c3nnn[nH]3)cc2)n1 [Compound 203] | 32 |  |  |  |  |  | 

Continued, in another order:

IC50 [1] [µM] | % Activity (CDK1/cyclinB(h)) [%] | % Activity (IKKβ(h)) [%] | % Activity (p70S6K(h)) [%] | % Activity (CK2(h)) [%] | % Activity (GSK3β(h)) [%] | SMILES | further results
 | 16 | 72 | 18 | 99 | 7 | NS(=O)(=O)c1ccc(-c2nc3ccccc3n2-c2ccc(Oc3ccccc3)cc2)cc1 [Compound 210] | 
10 |  |  |  |  |  | NS(=O)(=O)c1ccc(-c2nc3ccccc3n2-c2ccc3ccccc3c2)cc1 [Compound 208] | 
 | 36 | 25 | 12 | 22 | 5 | NS(=O)(=O)c1ccc(-c2nc3ccccc3n2-c2ccc(Cc3ccccc3)cc2)cc1 [Compound 209, 4-(1-(4-benzylphenyl)-1H-benzo[d]imidazol-2-yl)benzenesulfonamide] | % Activity (PDK1(h)): 30%
 | 11 | 71 | 17 | 99 | 13 | NS(=O)(=O)c1ccc(-c2nc3ccccc3n2-c2ccc(-c3ccccc3)cc2)cc1 [Compound 211] | 
